Data on 48 compounds can be found in ChEMBL document CHEMBL1134554, “Design, synthesis, and structure-activity relationships of macrocyclic hydroxamic acids that inhibit tumor necrosis factor alpha release in vitro and in vivo” (J Med Chem, 2001).

The target in this experiment is Disintegrin and metalloproteinase domain-containing protein 17 (Homo sapiens, UniProt P78536).

A value given as a limit tells only on which side of the number the result lay.

Chain of Disintegrin and metalloproteinase domain-containing protein 17 (P78536 whole entry, the tested form may be a part): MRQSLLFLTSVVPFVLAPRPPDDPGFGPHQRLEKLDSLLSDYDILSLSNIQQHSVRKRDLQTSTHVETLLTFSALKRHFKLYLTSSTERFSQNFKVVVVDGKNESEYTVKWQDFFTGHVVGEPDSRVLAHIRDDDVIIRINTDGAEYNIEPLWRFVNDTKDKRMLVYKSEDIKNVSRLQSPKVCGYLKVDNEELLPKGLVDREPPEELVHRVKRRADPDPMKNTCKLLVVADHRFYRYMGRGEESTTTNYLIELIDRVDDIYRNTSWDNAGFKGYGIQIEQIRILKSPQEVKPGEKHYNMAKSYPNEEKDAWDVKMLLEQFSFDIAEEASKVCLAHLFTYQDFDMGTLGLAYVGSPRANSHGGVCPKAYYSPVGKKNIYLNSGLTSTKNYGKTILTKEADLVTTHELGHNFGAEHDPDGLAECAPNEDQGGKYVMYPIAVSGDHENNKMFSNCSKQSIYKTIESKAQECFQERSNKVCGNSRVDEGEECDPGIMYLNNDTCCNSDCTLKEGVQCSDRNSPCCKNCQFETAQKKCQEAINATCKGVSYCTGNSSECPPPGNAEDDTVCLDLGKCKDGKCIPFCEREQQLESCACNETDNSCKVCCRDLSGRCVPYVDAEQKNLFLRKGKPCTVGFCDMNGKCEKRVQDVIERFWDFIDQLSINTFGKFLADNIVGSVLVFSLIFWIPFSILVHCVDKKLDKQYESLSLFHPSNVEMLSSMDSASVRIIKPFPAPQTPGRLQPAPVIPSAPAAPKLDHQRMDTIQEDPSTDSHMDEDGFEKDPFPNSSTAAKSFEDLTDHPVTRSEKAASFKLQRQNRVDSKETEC
Description: Inhibition of LPS-stimulated TNF-alpha release in human whole blood

Turning to `CC(C)C[C@H]1C(=O)N[C@H](C(=O)N[C@H]2c3ccccc3C[C@H]2O)CCCCNC(=O)OCCC[C@@H]1C(=O)NO`, it took 400 nM to reach half-maximal inhibition (IC50).
The same measure for `CC(C)C[C@H]1C(=O)N[C@H](C(=O)N[C@@H]2c3ccccc3C[C@@H]2O)CCCCNC(=O)OCCC[C@@H]1C(=O)NO`: 110 nM; for `CNC(=O)[C@@H]1CCCCN(S(=O)(=O)c2ccccc2)CCC[C@H](C(=O)NO)[C@@H](CC(C)C)C(=O)N1`: 1300 nM.
In the case of `CC(C)C[C@H]1C(=O)N[C@H](C(=O)NCc2ccncc2)CCCCNC(=O)OCCC[C@@H]1C(=O)NO` it was 490 nM; in that of `CC(C)C[C@H]1C(=O)N[C@H](C(=O)NCC(=O)N2CCN(c3ccccc3)CC2)CCCCNC(=O)OCCC[C@@H]1C(=O)NO`, 70 nM.
In the case of `CNC(=O)[C@H](NC(=O)[C@@H]1Cc2ccc(cc2)OCCC[C@H](C(=O)NO)[C@@H](CC(C)C)C(=O)N1)C(C)C` it was 1510 nM; in that of `CC(C)C[C@H]1C(=O)N[C@H](C(=O)NCCc2ccccn2)CCCCNC(=O)OCCC[C@@H]1C(=O)NO`, 390 nM.
Consider `CCCCCC[C@H]1C(=O)N[C@H](C(=O)NCc2ccccc2)Cc2ccc(cc2)OCCC[C@@H]1C(=O)NO`, for which the IC50 – broadly, the point on the concentration scale where inhibition reaches its midpoint – is 2200 nM.
In the case of `CNC(=O)[C@@H](C)NC(=O)[C@@H]1Cc2ccc(cc2)OCCC[C@H](C(=O)NO)[C@@H](CC(C)C)C(=O)N1` it was 700 nM; in that of `CC(C)C[C@H]1C(=O)N[C@H](C(=O)NCC(F)(F)F)Cc2ccc(cc2)OCCC[C@@H]1C(=O)NO`, 680 nM; in that of `Cc1csc(NC(=O)[C@@H]2CCCCN(C)C(=O)OCCC[C@H](C(=O)NO)[C@@H](CC(C)C)C(=O)N2)n1`, 300 nM.
Take `CC(C)C[C@H]1C(=O)N[C@H](C(=O)NCC(=O)N2CCN(C)CC2)CCCCNC(=O)OCCC[C@@H]1C(=O)NO`: 160 nM corresponded to half-maximal inhibition (IC50).
`CC(C)C[C@H]1C(=O)N[C@H](C(=O)NCC(=O)N2CCC(N3CCCCC3)CC2)CCCCNC(=O)OCCC[C@@H]1C(=O)NO` showed a 50% inhibitory concentration (IC50) of 180 nM.
The same measure for `CNC(=O)CNC(=O)[C@@H]1CCCCN(C)C(=O)OCCC[C@H](C(=O)NO)[C@@H](CC(C)C)C(=O)N1`: 420 nM; for `CNC(=O)[C@@H](CCCCNC(=O)OC(C)(C)C)NC(=O)[C@@H]1CCCCNC(=O)OCCC[C@H](C(=O)NO)[C@@H](CC(C)C)C(=O)N1`: 210 nM; for `CC(C)C[C@H]1C(=O)N[C@H](C(=O)NCC(=O)N2CC(C)CC(C)C2)Cc2ccc(cc2)OCCC[C@@H]1C(=O)NO` (stereo partly drawn): 270 nM.
Turning to `CCCCCC[C@H]1C(=O)N[C@H](C(=O)OC)Cc2ccc(cc2)OCCC[C@@H]1C(=O)NO`, the IC50 was above 50000 nM.
In the case of `CC(C)C[C@H]1C(=O)N[C@H](C(=O)Nc2ccncc2)CCCCN(C)C(=O)OCCC[C@@H]1C(=O)NO` it was 500 nM.
`CC(C)C[C@H]1C(=O)N[C@H](C(=O)NCC(=O)Nc2cccc3c2Cc2ccccc2-3)Cc2ccc(cc2)OCCC[C@@H]1C(=O)NO` had an IC50 of 930 nM.
In the case of `CC(C)C[C@H]1C(=O)N[C@H](C(=O)NCCc2ccccc2O)CCCCNC(=O)OCCC[C@@H]1C(=O)NO` it was 85 nM.
In the case of `CC(C)C[C@H]1C(=O)N[C@H](C(=O)Nc2nc(CC(=O)N3CCOCC3)cs2)CCCCNC(=O)OCCC[C@@H]1C(=O)NO` it was 120 nM.
In the case of `CC(C)C[C@H]1C(=O)N[C@H](C(=O)NCC(=O)Nc2ccccn2)CCCCN(C)C(=O)OCCC[C@@H]1C(=O)NO` it was 200 nM.
`CC(C)C[C@H]1C(=O)N[C@H](C(=O)N[C@H](CO)C(=O)N2CCOCC2)CCCCNC(=O)OCCC[C@@H]1C(=O)NO`: the IC50 is 100 nM.
The same measure for `CNC(=O)[C@@H](CCCCN)NC(=O)[C@@H]1CCCCNC(=O)OCCC[C@H](C(=O)NO)[C@@H](CC(C)C)C(=O)N1`: 690 nM; for `CC(C)C[C@H]1C(=O)N[C@H](C(=O)NCC(=O)N2CCN(C)CC2)CCCCN(C)C(=O)OCCC[C@@H]1C(=O)NO`: 120 nM.
Compound `CNC(=O)[C@@H]1Cc2ccc(cc2)OCCC[C@H](C(=O)NO)[C@@H](CC(C)C)C(=O)N1` displayed an IC50 of 1200 nM.
The same measure for `CNC(=O)[C@@H]1CCCCNC(=O)CO[C@H](C(=O)NO)[C@@H](CC(C)C)C(=O)N1`: 6500 nM; for `CC(C)C[C@H]1C(=O)N[C@H](C(=O)NCCC(=O)N2CCOCC2)CCCCNC(=O)OCCC[C@@H]1C(=O)NO`: 170 nM.
The same measure for `CNC(=O)[C@@H]1CCCCNCCC[C@H](C(=O)NO)[C@@H](CC(C)C)C(=O)N1`: 2700 nM; for `COC(=O)c1csc(NC(=O)[C@@H]2CCCCNC(=O)OCCC[C@H](C(=O)NO)[C@@H](CC(C)C)C(=O)N2)n1`: 83 nM; for `COc1ccc2[nH]cc(CCNC(=O)[C@@H]3CCCCNC(=O)OCCC[C@H](C(=O)NO)[C@@H](CC(C)C)C(=O)N3)c2c1`: 490 nM.
In the case of `CC(C)C[C@H]1C(=O)N[C@H](C(=O)NCC(=O)N2CCCCC2)Cc2ccc(cc2)OCCC[C@@H]1C(=O)NO` it was 140 nM.
Turning to `CC(C)C[C@H]1C(=O)N[C@H](C(=O)NCC(=O)N2CCCC(C)(C)C2)Cc2ccc(cc2)OCCC[C@@H]1C(=O)NO`, the IC50 was determined as 460 nM.
In the case of `COc1ccc2c(CCNC(=O)[C@@H]3CCCCNC(=O)OCCC[C@H](C(=O)NO)[C@@H](CC(C)C)C(=O)N3)c[nH]c2c1` it was 94 nM; in that of `CC(C)C[C@H]1C(=O)N[C@H](C(=O)NCC(=O)Nc2ccccc2)Cc2ccc(cc2)OCCC[C@@H]1C(=O)NO`, 200 nM.
The same measure for `CC(C)C[C@H]1C(=O)N[C@H](C(=O)NCC(=O)N2CCOCC2)CCCCN(C)C(=O)OCCC[C@@H]1C(=O)NO`: 200 nM.
The same measure for `CC(C)C[C@H]1C(=O)N[C@H](C(=O)NC[C@@H]2CCCO2)CCCCNC(=O)OCCC[C@@H]1C(=O)NO`: 260 nM; for `CC(C)C[C@H]1C(=O)N[C@H](C(=O)Nc2ccc(N3CCOCC3)cc2)CCCCNC(=O)OCCC[C@@H]1C(=O)NO`: 190 nM.
`CC(C)C[C@H]1C(=O)N[C@H](C(=O)Nc2ccccn2)CCCCN(C)C(=O)OCCC[C@@H]1C(=O)NO` displayed an IC50 of 200 nM.
In the case of `CC(C)C[C@H]1C(=O)N[C@H](C(=O)Nc2cccnc2)CCCCN(C)C(=O)OCCC[C@@H]1C(=O)NO` it was 500 nM; in that of `CCOC(=O)N1CCN(C(=O)CNC(=O)[C@@H]2CCCCN(C)C(=O)OCCC[C@H](C(=O)NO)[C@@H](CC(C)C)C(=O)N2)CC1`, 600 nM; in that of `CC(C)C[C@H]1C(=O)N[C@H](C(=O)Nc2ccccc2)CCCCNC(=O)OCCC[C@@H]1C(=O)NO`, 280 nM.
Compound `CC(C)C[C@H]1C(=O)N[C@H](C(=O)NCC(=O)N2CCCC(C(=O)O)C2)CCCCNC(=O)OCCC[C@@H]1C(=O)NO` (stereo partly drawn) showed an IC50 of 580 nM.
`CC(C)C[C@H]1C(=O)N[C@H](C(=O)NCc2ccccc2)CCCCNC(=O)OCCC[C@@H]1C(=O)NO` gave an IC50 of 740 nM.
`CC(C)C[C@H]1C(=O)N[C@H](C(=O)NCC(=O)Nc2ccc(F)cc2F)Cc2ccc(cc2)OCCC[C@@H]1C(=O)NO`: the half-inhibitory concentration (IC50) worked out at 700 nM.
As for `CC(C)C[C@H]1C(=O)N[C@H](C(=O)NCC(F)(F)F)CCCCNC(=O)OCCC[C@@H]1C(=O)NO`, the IC50 was determined as 2000 nM.
In the case of `CC(C)C[C@H]1C(=O)N[C@H](C(=O)NCC(=O)N2CCN(c3ccccn3)CC2)CCCCNC(=O)OCCC[C@@H]1C(=O)NO` it was 70 nM; in that of `Cc1ccc2[nH]cc(CCNC(=O)[C@@H]3CCCCNC(=O)OCCC[C@H](C(=O)NO)[C@@H](CC(C)C)C(=O)N3)c2c1`, 1170 nM.
